Experimental findings from PubChem BioAssay (NCI) are described below.

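Growth conditions: 96-well plates. Treatment: test compound, 48 hours, 5 concentrations. Analysis: linear interpolation between bracketing concentrations; unreached endpoints set to highest concentration. GI50 marks 50% less growth. TGI denotes the concentration required for complete inhibition of growth.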 Where a SMILES comes first, the peptide text is derived from it. [ ]: non-standard residue; d: D form. The star is where a group is joined. Phe(4-NO2) = N[CH](Cc1ccc([N+](=O)[O-])cc1)C(=O)O; Boc = CC(C)(C)OC(=O)*

Test systems include OVCAR-4 ovarian; ACHN renal; COLO 205 colon; HCT-116 colon; MCF7 breast; T-47D breast; HOP-62 NSCLC; K-562 leukemia; HCC-2998 colon.
Assay in all cases: DTP human tumour cell line panel, 48 h

In general, TGI refers to the concentration at which net growth stops. A higher TGI goes with less potent growth arrest. Take `O=c1c2ccccc2nc(N/N=C/c2ccc([N+](=O)[O-])cc2)n1-c1ccccc1`: the TGI in the assay on OVCAR-4 ovarian is greater than 100 µM; in the assay on ACHN renal, 62.9 µM; with COLO 205 colon, greater than 100 µM; in the assay on HCT-116 colon, greater than 100 µM; in the assay on MCF7 breast it was greater than 100 µM; in the assay with T-47D breast, greater than 100 µM. In addition, the concentration for total growth inhibition (TGI) with HOP-62 NSCLC is 67.5 µM; with K-562 leukemia it was greater than 100 µM.
For `CC(=O)OCC1OC(SC2=NC(=O)CS2)C(OC(C)=O)C(OC(C)=O)C1OC(C)=O` (stereo unspecified), the TGI in the assay with ACHN renal, in the assay with HCC-2998 colon, with MCF7 breast, in the assay with T-47D breast, in the assay on HOP-62 NSCLC and in the assay with K-562 leukemia was greater than 100 µM each time.
With `O=c1[nH]n(CCc2ccccc2CCl)c2ccc([N+](=O)[O-])cc12`, the total growth inhibition concentration (TGI) was 92 µM with OVCAR-4 ovarian; greater than 100 µM in the assay on ACHN renal; greater than 100 µM with COLO 205 colon; greater than 100 µM in the assay on HCT-116 colon; greater than 100 µM with HCC-2998 colon; greater than 100 µM with MCF7 breast. The TGI with HOP-62 NSCLC and in the assay with K-562 leukemia was greater than 100 µM in each case.
With `O=Nc1c(-c2c(O)[nH]c3ccc(I)cc23)[nH]c2ccccc12`, the TGI with OVCAR-4 ovarian was 14.8 µM; with ACHN renal, greater than 21.4 µM; with COLO 205 colon, greater than 100 µM; in the assay with MCF7 breast, greater than 19.9 µM; in the assay with T-47D breast it was greater than 69.8 µM; in the assay on HOP-62 NSCLC, greater than 30.8 µM.
In the case of `CC(CCc1nc2ccccc2s1)(c1ccc(O)cc1)c1ccc(O)cc1`, the TGI in the assay with OVCAR-4 ovarian was determined as 37 µM; in the assay on ACHN renal, 33.2 µM; in the assay with HCT-116 colon it was 34 µM; in the assay on HCC-2998 colon it was 33.8 µM; with T-47D breast it was 95.2 µM; with HOP-62 NSCLC, 31.5 µM. In the assay with K-562 leukemia, the TGI turned out to be 47.2 µM.
On to `Cc1ccc(-n2nncc2[Si](C)(C)C)s1`, for which the TGI with OVCAR-4 ovarian, in the assay on ACHN renal, with COLO 205 colon, with HCT-116 colon, in the assay on HCC-2998 colon and with MCF7 breast was greater than 100 µM in each case. Also, the TGI with T-47D breast and in the assay with K-562 leukemia was greater than 100 µM each time.
Regarding `CC(=O)CC(=O)N1CCSC1=S`, the TGI in the assay with ACHN renal, with HCT-116 colon, in the assay on HCC-2998 colon, with MCF7 breast, with T-47D breast and in the assay with HOP-62 NSCLC was greater than 10 µM in each case. The same compound yielded a TGI in the assay on K-562 leukemia greater than 10 µM.
For `CCCC1=C(OC)C(=O)c2c(C)cc(Cl)nc2C1=O`, the TGI is 19.5 µM with OVCAR-4 ovarian; 17.4 µM with ACHN renal; 22.1 µM in the assay with COLO 205 colon; 7.26 µM in the assay on HCT-116 colon; 20.2 µM with HCC-2998 colon; 6.17 µM with MCF7 breast. Also, the TGI with T-47D breast was 9.83 µM; in the assay on HOP-62 NSCLC it was 29.9 µM.
`Cc1cc(C)c2c(c1)C/C(=C\c1cccc(C)c1C(=O)O)C2=O`: the TGI in the assay with OVCAR-4 ovarian, with ACHN renal, with HCT-116 colon, in the assay on HCC-2998 colon, with T-47D breast and with HOP-62 NSCLC was greater than 100 µM throughout. Moreover, in the assay on K-562 leukemia, the total growth inhibition concentration (TGI) was greater than 100 µM.
For `C=C(Br)C[N+]12CN3CN(CN(C3)C1)C2`, the concentration for total growth inhibition (TGI) in the assay with OVCAR-4 ovarian, in the assay on ACHN renal, in the assay on COLO 205 colon, in the assay with HCT-116 colon, in the assay with HCC-2998 colon and in the assay with T-47D breast was greater than 100 µM each time. Also, the TGI in the assay with HOP-62 NSCLC and in the assay on K-562 leukemia was greater than 100 µM in each case.
Consider `COC(=O)[C@@H](NS(=O)(=O)CC12CCC(CC1)C2(C)C)C(C)(C)C`, for which the total growth inhibition concentration (TGI) in the assay on OVCAR-4 ovarian, in the assay on ACHN renal, with COLO 205 colon, with HCT-116 colon, in the assay on HCC-2998 colon and in the assay with MCF7 breast was greater than 100 µM each time. The TGI in the assay on T-47D breast and with K-562 leukemia was greater than 100 µM throughout.
What is called GI50 is the concentration at which growth is held to half of that of the control. As for `COc1cc2c3c(n(C)c(=O)c2cc1OC)-c1cc2c(cc1/C3=C\CCCCCBr)OCO2`, the TGI is greater than 100 µM in the assay with OVCAR-4 ovarian; 41.7 µM in the assay on ACHN renal; greater than 100 µM in the assay on COLO 205 colon; 44.7 µM in the assay on HCT-116 colon; greater than 100 µM in the assay with MCF7 breast; 7.92 µM with T-47D breast. Moreover, the TGI with HOP-62 NSCLC turned out to be 25.1 µM; with K-562 leukemia it was 30.2 µM. Besides, the GI50 in the assay with HCT-116 colon was 6.14 µM; with HOP-62 NSCLC, 3.09 µM.
On to `CCOC(=O)CCC(NC(=O)C(Cc1ccc([N+](=O)[O-])cc1)NC(=O)OC(C)(C)C)C(=O)NC(CCC(=O)OCC)C(=O)OCC` (stereo unspecified) (Boc-[Phe(4-NO2)]-Glu(OEt)-Glu(OEt)-OEt; configuration not given here), for which the total growth inhibition concentration (TGI) in the assay with ACHN renal was 31.1 µM; with COLO 205 colon, 57.1 µM; in the assay on HCT-116 colon it was 38.5 µM; in the assay with HCC-2998 colon, 30.9 µM; in the assay on MCF7 breast it was greater than 100 µM; in the assay on HOP-62 NSCLC it was 67.4 µM.
On to `Cc1cn(C2CC(COCc3ccccc3)N(CCO[Si](C)(C)C(C)(C)C)O2)c(=O)[nH]c1=O` (stereo unspecified), for which the TGI with OVCAR-4 ovarian is 33.4 µM; with ACHN renal, 28.9 µM; in the assay with COLO 205 colon, 28.4 µM; in the assay with HCT-116 colon, 43 µM; in the assay on MCF7 breast, 33 µM; with T-47D breast, 31.1 µM. The TGI was 31 µM with HOP-62 NSCLC and 19.3 µM with K-562 leukemia.
As to `S=C1C(=Nc2ccccc2)N(c2ccccc2)/C(=N\c2cccc[n+]2Cc2ccccc2)N1c1ccccc1`, the TGI in the assay on ACHN renal was 45 µM; with COLO 205 colon it was 34.9 µM; in the assay with HCT-116 colon it was 23.9 µM; with HCC-2998 colon it was 27.2 µM; in the assay on MCF7 breast it was 42.8 µM; in the assay with T-47D breast, 61.7 µM. Besides, the concentration for total growth inhibition (TGI) was 29.8 µM with HOP-62 NSCLC and greater than 100 µM in the assay on K-562 leukemia.
Take `CC(c1ccccc1)n1cncc1C(=O)NN1CCN(C)CC1` (stereo unspecified): the TGI in the assay on OVCAR-4 ovarian, in the assay with ACHN renal, with COLO 205 colon, with HCT-116 colon, in the assay with MCF7 breast and in the assay with T-47D breast was greater than 10 µM throughout. Moreover, the TGI in the assay on HOP-62 NSCLC and in the assay on K-562 leukemia was greater than 10 µM each time.
